Holding throughout (assay type): cell-based
Data set [1] relates to C. albicans ATCC 10231. Briefly: Broth microdilution antimicrobial assay (MIC, IC50). As to conditions: Candida albicans, 24 h; for IC50: ATCC10231, 50% growth inhibition, read-out: IC50 [95% confidence interval] Candida albicans; for MIC: ATCC10231, broth microdilution, 37°C. As for the experimental part:
(§1) Reference strains of Staphylococcus aureus (ATCC 25923), Escherichia coli (ATCC 25922), and Candida albicans (ATCC 10231) were used in this study as microbial models. These strains were purchased from the American Type Culture Collection (ATCC); bacterial cultures were routinely grown on 5% blood agar plate, while fungal cultures on Sabouraud Dextrose Agar (Biolife […]., Milan, Italy). […] In short, microbial inocula were prepared at 0.5 McFarland in PBS and, subsequently, bacterial suspensions were diluted 1:200 in Mueller-Hinton broth (Sigma-Aldrich, St. Louis, MO, USA), while fungal inoculum was diluted 1:20 in RPMI-1640 medium (Gibco®, ThermoFisher Scientific Inc., Waltham, MA, USA), containing glucose 2%, 0.3% levo-glutamine buffered to pH 7.0 with 0.165 M 3-(N-morpholino) propanesulfonic acid (MOPS). A total of 100 μL of these microbial suspensions was introduced into a 96-well microplate and incubated with 100 μL of the compounds, two-fold serially diluted in the range of 100-0.19 μM. Positive controls (microbial suspensions in regular media), negative controls (only compounds), and solvent controls (microbial suspensions incubated with DMSO dilutions) were included in the tests. The plate was incubated at 37°C for 24 h, and subsequently the optical density at 630 nm (OD630nm) was spectrophotometrically measured. Experiments were carried out in triplicate in three biological replicates. […] Statistical analysis was carried out by using GraphPad Prism version 9.4.1 for Windows (GraphPad Software, San Diego, California USA, www.graphpad.com). ^a MIC (Minimum Inhibitory Concentration) were determined in vitro by means of a standardized microdilution assay, in compliance with the Clinical and laboratory Standard Institute (CLSI) guidelines (30). Microbial suspensions were prepared at 0.5 McFarland in PBS, then diluted in the media and transferred in a 96 micro-well plate together with the serially 2-fold dilutions of the compounds. After 24h of incubation at 37°C, microbial growths were evaluated by measuring the Optical Density at 600 nm, then percentage values were obtained as relative to the positive controls (microbial suspensions in regular media).
For orientation: In broth dilution the organism is exposed to a series of concentrations in liquid medium.

In data set [2] the test system is S. aureus ATCC 25923. The description is as above. Particulars: Staphylococcus aureus; for IC50: ATCC25923, 50% growth inhibition, 24 h, read-out: IC50 [95% confidence interval] Staphylococcus aureus; for MIC: ATCC25923, 24 h, broth microdilution, 37°C. The procedure:
as §1

Data set [3] concerns E. coli ATCC 25922. Described as above. As to conditions: Escherichia coli, 24 h; for IC50: ATCC25922, 50% growth inhibition, read-out: IC50 [95% confidence interval] Escherichia coli; for MIC: ATCC25922, broth microdilution, 37°C. As for the experimental part: as §1
The nature of data set [4]: Cell viability and proliferation assay (WST8/CCK-8). As to conditions: African green monkey, Vero cells (ATCC CCL-81), 48 h treatment, CCK-8; read-out: CC50 [95% CI] Vero cells. The procedure: Vero cell line (ATCC CCL‐81) was selected as a model system to investigate the overall effect of chalcones on non‐malignant mammalian cells. […] For experiments, cells were seeded into 96‐well plates at 10^4 cells/well and incubated at 37°C for 24 h. Following washes with PBS, the cell monolayer was incubated with 100 µL of medium containing the twofold serial dilutions of the compounds. Both untreated cells and cells incubated with medium containing solvent dilutions were included in each experiment as controls. The cell viability was assessed by a WST8‐based assay according to the manufacturer's instructions (CCK‐8, Cell Counting Kit‐8, Dojindo Molecular Technologies, Rockville, MD, USA). After 48 h of incubation, culture medium was removed from each well, the monolayer was washed with PBS, and 100 µL of fresh medium containing 10 µL of CCK‐8 solution was added. Following a 2 h incubation at 37°C, the OD450nm was read, and data were expressed as the percentage of cell viability relative to the untreated controls. The CC50 was obtained on the corresponding dose–response curves generated as previously reported for IC50 values. Experiments were carried out in triplicate in three biological replicates.

Data set [5] deals with human red blood cells (hRBCs). Briefly: Hemolytic activity assay. As to conditions: 25 µM, 90 min, 37°C. The procedure: The hemolytic activity of some selected compounds was evaluated as the amount of hemoglobin released by the disruption of human red blood cells (hRBCs). For the experiments, fresh hRBCs were collected by centrifugation at 1500g for 10 min, washed three times with PBS, and resuspended to a final concentration of 4% w/v hRBCs in PBS. Then, 100 µL of hRBCs suspension and an equal volume of the twofold dilutions of the antimicrobial peptides were mixed in a 96‐well plate and incubated for 90 min at 37°C. After centrifugation at 1000g for 5 min, the supernatants were transferred into a clear 96‐well plate, and OD405nm was read. Untreated hRBCs (incubated with PBS) and hRBCs incubated with 1% Triton X‐100 were employed as negative and positive controls, respectively. The hemolysis percentage was calculated as [OD405nm (sample) − OD4_05nm (negative control)]/[OD405nm (positive control) − OD405nm (negative control)] × 100. Minimal hemolytic concentrations (MHCs) were defined as the compound concentration causing 10% hemolysis. Three independent experiments were performed in triplicate.

From paper PMC12066977, “Alkyl Tail Variation on Chalcone‐Based Quaternary Pyridinium Salts as Rule‐of‐Thumb for Antimicrobial Activity” (Archiv Der Pharmazie, 2025) come the findings set out here.

In brackets after ≈: the same amount, converted by molar mass. Some results are limits rather than exact numbers.

For `C#CCOc1ccc(C(=O)/C=C/c2ccc[n+](CCCCCCCC)c2)c(OCC#C)c1` [Compound 3, (E)‐3‐{3‐[2,4‐Bis(prop‐2‐yn‐1‐yloxy)phenyl]‐3‐oxoprop‐1‐en‐1‐yl}‐1‐octylpyridin‐1‐ium bromide], the results for the IC50 in data set [1], in data set [2] and in data set [3] were 30.5 µM, 2.65 µM and 11 µM, respectively. In addition, the values for the MIC in data set [1], in data set [2] and in data set [3] were 50 µM, 6.25 µM and 12.5 µM, respectively. Also, the CC50 at 48 h in data set [4] was determined as 47 µM.

Consider `C#CCOc1ccc(C(=O)/C=C/c2ccc[n+](CCCCCCCCCCCC)c2)c(OCC#C)c1.[Br-]` [Compound 5, (E)‐3‐{3‐[2,4‐Bis(prop‐2‐yn‐1‐yloxy)phenyl]‐3‐oxoprop‐1‐en‐1‐yl}‐1‐dodecylpyridin‐1‐ium bromide], for which the figures for the IC50 in data set [1], in data set [2] and in data set [3] were 1.57 µM, 1.62 µM and 5.88 µM, respectively. The figures for the MIC in data set [1], in data set [2] and in data set [3] were 3.12 µM, 3.12 µM and 6.25 µM, respectively. In addition, the CC50 at 48 h in data set [4] was found to be 14 µM. In addition, in data set [5], the hemolytic activity came out at 40.9%.

For `C#CCOc1ccc(C(=O)/C=C/c2ccc[n+](CCCCCCCCCCCCCCCC)c2)c(OCC#C)c1` [Compound 7, (E)‐3‐{3‐[2,4‐Bis(prop‐2‐yn‐1‐yloxy)phenyl]‐3‐oxoprop‐1‐en‐1‐yl}‐1‐hexadecylpyridin‐1‐ium], the IC50 was found to be 5.76 µM in data set [1] and 4.21 µM in data set [2]. The results for the MIC in data set [1], in data set [2] and in data set [3] were 6.25 µM, 12.5 µM and above 100 µM, respectively. For the same compound, the CC50 at 48 h in data set [4] is 5.38 µM.

`C#CCOc1ccc(C(=O)/C=C/c2ccc[n+](CCCCCCCCCCCCCCCCCC)c2)c(OCC#C)c1` [Compound 8, (E)‐3‐{3‐[2,4‐Bis(prop‐2‐yn‐1‐yloxy)phenyl]‐3‐oxoprop‐1‐en‐1‐yl}‐1‐octadecylpyridin‐1‐ium bromide]: the IC50 in data set [1] stood at 52.5 µM; in data set [2], 14.2 µM. In addition, the MIC in data set [1] is above 100 µM; in data set [2], 100 µM; in data set [3], above 100 µM. In data set [4], the CC50 at 48 h was found to be 5.73 µM.

In the case of `COc1cccc2c1C(=O)c1c(O)c3c(c(O)c1C2=O)C[C@@](O)(C(=O)CO)C[C@@H]3O[C@H]1C[C@H](N)[C@H](O)[C@H](C)O1` [DOX, doxorubicin, reference compound], the CC50 at 48 h in data set [4] was determined as 70.6 µM.

Consider `OC(Cn1cncn1)(Cn1cncn1)c1ccc(F)cc1F` [FLC, fluconazole, reference compound], for which, in data set [1], the IC50 came to 0.23 µM and the MIC was 0.82 µM (≈ 0.251 µg/mL).

On to `CNC(C)C1CCC(N)C(OC2C(N)CC(N)C(OC3OCC(C)(O)C(NC)C3O)C2O)O1` (stereo not shown) [GEN, gentamicin, reference compound], for which the IC50 amounted to 4 µM in data set [2] and 6.11 µM in data set [3]. For the same compound, the MIC in data set [2] is 6.54 µM (≈ 3.12 µg/mL); in data set [3] it was 13.1 µM (≈ 6.25 µg/mL).

The IC50 is the concentration needed to halve the response being measured. Usually MIC stands for the least concentration at which growth counts as inhibited. A higher MIC goes with a need for much substance. The CC50 is the concentration giving 50% cytotoxicity.
